# Results from patent US9695155B2, “Herbicidal substituted pyrimidinyloxy benzene compounds” (E. I. DU PONT DE NEMOURS AND COMPANY, priority 2013, dated 2017).
# Columns and labels:
# blackgrass [1] = assay: Test C postemergence; format: in vivo, Alopecurus myosuroides; conditions: for Plant response rating (0 to 100), Blackgrass: postemergence; for Plant response rating, Blackgrass: Postemergence, scale 0 to 100 (0 no effect, 100 complete control)
# How it was run: (§1)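 Whole-plant greenhouse test with surfactant-containing solvent formulation, applied preemergence to sown loam–sand pots or postemergence to 2–18 cm plants. Scored by eye 13 to 15 days on, 0–100 scale.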
# wild oat = assay: Test C postemergence; format: in vivo, Avena fatua; conditions: for Plant response rating (0 to 100), Oat, Wild: postemergence; for Plant response rating, Oat, Wild: Postemergence, scale 0 to 100 (0 no effect, 100 complete control)
# How it was run: as §1
# pigweed [2] = assay: Test C preemergence; format: in vivo, Amaranthus retroflexus; conditions: for Pigweed plant response rating: preemergence, scale 0 (no effect) to 100 (complete control)
# How it was run: as §1
# ragweed = assay: Test C preemergence; format: in vivo, Ambrosia elatior; conditions: for Ragweed plant response rating: preemergence, scale 0 (no effect) to 100 (complete control)
# How it was run: as §1
# soybean = assay: Test C preemergence; format: in vivo, Glycine max; conditions: for Soybean plant response rating: preemergence, scale 0 (no effect) to 100 (complete control)
# How it was run: as §1
# corn = assay: Test C postemergence; format: in vivo, Zea mays; conditions: for Plant response rating (0 to 100), Corn: postemergence; for Plant response rating, Corn: Postemergence, scale 0 to 100 (0 no effect, 100 complete control)
# How it was run: as §1
# Italian ryegrass = assay: Test C preemergence; format: in vivo, Lolium multiflorum; conditions: for Ryegrass, Italian plant response rating: preemergence, scale 0 (no effect) to 100 (complete control)
# How it was run: as §1
# chickweed = assay: Test C postemergence; format: in vivo, Stellaria media; conditions: for Plant response rating (0 to 100), Chickweed: postemergence; for Plant response rating, Chickweed: Postemergence, scale 0 to 100 (0 no effect, 100 complete control)
# How it was run: as §1
# wheat, winter = assay: Test C postemergence; format: in vivo, Triticum aestivum; conditions: for Plant response rating (0 to 100), Wheat: postemergence; for Plant response rating, Wheat: Postemergence, scale 0 to 100 (0 no effect, 100 complete control)
# How it was run: as §1
# yellow nutsedge [3] = assay: Test C postemergence; format: in vivo, Cyperus esculentus; conditions: for Plant response rating (0 to 100), Nutsedge, Yellow: postemergence; for Plant response rating, Nutsedge, Yellow: Postemergence, scale 0 to 100 (0 no effect, 100 complete control)
# How it was run: as §1
# morningglory = assay: Test C preemergence; format: in vivo, Ipomoea coccinea; conditions: for Morningglory plant response rating: preemergence, scale 0 (no effect) to 100 (complete control)
# How it was run: as §1
# yellow nutsedge [4] = assay: Test C preemergence; format: in vivo, Cyperus esculentus; conditions: for Nutsedge, Yellow plant response rating: preemergence, scale 0 (no effect) to 100 (complete control)
# How it was run: as §1
# blackgrass [5] = assay: Test C preemergence; format: in vivo, Alopecurus myosuroides; conditions: for Blackgrass plant response rating: preemergence, scale 0 (no effect) to 100 (complete control)
# How it was run: as §1
# large (Lg) crabgrass = assay: Test A preemergence; format: in vivo, Digitaria sanguinalis
# How it was run: (§2)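 Compounds in non-phytotoxic solvent with surfactant applied as soil spray preemergence, or postemergence to plants 2-10 cm at one- to two-leaf stage, in loam/sand. After approximately 10 days in greenhouse, injury rated visually versus untreated controls, 0 (no effect) to 100 (complete control).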
# giant foxtail = assay: Test C postemergence; format: in vivo, Setaria faberii; conditions: for Plant response rating (0 to 100), Foxtail, Giant: postemergence; for Plant response rating, Foxtail, Giant: Postemergence, scale 0 to 100 (0 no effect, 100 complete control)
# How it was run: as §1
# pigweed [6] = assay: Test A preemergence; format: in vivo, Amaranthus retroflexus
# How it was run: as §2
# [7] = Preemergence, 31 g ai/ha, scale 0 to 100, 0 no effect, 100 complete control
# [8] = 125 g ai/ha, 0 to 100 scale where 0 is no effect and 100 is complete control
# [9] = 500 g ai/ha, 0 to 100 scale, 0 no effect, 100 complete control, approx. 10 days
smiles,measurement,setting,value
FC(F)(F)c1cnn(-c2ccccc2Oc2ncc(Cl)cn2)c1 [Compound 16],"Plant response rating (0 to 100), Blackgrass",blackgrass [1]; 125 g ai/ha,30
same,"Plant response rating (0 to 100), Blackgrass",blackgrass [1]; 250 g ai/ha,70
same,"Plant response rating, Blackgrass","blackgrass [1]; 31 g ai/ha, 13 to 15 days",5
same,"Plant response rating, Blackgrass",blackgrass [1]; 62 g ai/ha,30
same,"Plant response rating (0 to 100), Oat, Wild",wild oat; 125 g ai/ha,35
same,"Plant response rating (0 to 100), Oat, Wild",wild oat; 250 g ai/ha,45
same,"Plant response rating, Oat, Wild","wild oat; 31 g ai/ha, 13 to 15 days",25
same,"Plant response rating, Oat, Wild",wild oat; 62 g ai/ha,35
same,Pigweed plant response rating,pigweed [2]; 62 g ai/ha,100
same,Pigweed plant response rating,pigweed [2]; 125 g ai/ha,100
same,Pigweed plant response rating,pigweed [2]; 250 g ai/ha,100
same,"Plant response rating, Pigweed",pigweed [2]; [7],100
same,Ragweed plant response rating,ragweed; 62 g ai/ha,25
same,Ragweed plant response rating,ragweed; 125 g ai/ha,55
same,Ragweed plant response rating,ragweed; 250 g ai/ha,60
same,"Plant response rating, Ragweed",ragweed; [7],0
same,Soybean plant response rating,soybean; 62 g ai/ha,90
same,Soybean plant response rating,soybean; 125 g ai/ha,90
same,Soybean plant response rating,soybean; 250 g ai/ha,90
same,"Plant response rating, Soybean",soybean; [7],75
same,"Plant response rating (0 to 100), Corn",corn; 125 g ai/ha,10
same,"Plant response rating (0 to 100), Corn",corn; 250 g ai/ha,20
same,"Plant response rating, Corn","corn; 31 g ai/ha, 13 to 15 days",5
same,"Plant response rating, Corn",corn; 62 g ai/ha,5
same,"Ryegrass, Italian plant response rating",Italian ryegrass; 62 g ai/ha,30
same,"Ryegrass, Italian plant response rating",Italian ryegrass; 125 g ai/ha,80
same,"Ryegrass, Italian plant response rating",Italian ryegrass; 250 g ai/ha,90
same,"Plant response rating, Ryegrass, Italian",Italian ryegrass; [7],0
same,"Plant response rating (0 to 100), Chickweed",chickweed; 125 g ai/ha,75
same,"Plant response rating (0 to 100), Chickweed",chickweed; 250 g ai/ha,90
same,"Plant response rating, Chickweed","chickweed; 31 g ai/ha, 13 to 15 days",40
same,"Plant response rating, Chickweed",chickweed; 62 g ai/ha,65
same,"Plant response rating (0 to 100), Wheat","wheat, winter; 125 g ai/ha",35
same,"Plant response rating (0 to 100), Wheat","wheat, winter; 250 g ai/ha",35
same,"Plant response rating, Wheat","wheat, winter; 31 g ai/ha, 13 to 15 days",5
same,"Plant response rating, Wheat","wheat, winter; 62 g ai/ha",15
same,"Plant response rating (0 to 100), Nutsedge, Yellow",yellow nutsedge [3]; 125 g ai/ha,5
same,"Plant response rating (0 to 100), Nutsedge, Yellow",yellow nutsedge [3]; 250 g ai/ha,20
same,"Plant response rating, Nutsedge, Yellow","yellow nutsedge [3]; 31 g ai/ha, 13 to 15 days",5
same,"Plant response rating, Nutsedge, Yellow",yellow nutsedge [3]; 62 g ai/ha,5
same,Morningglory plant response rating,morningglory; 62 g ai/ha,75
same,Morningglory plant response rating,morningglory; 125 g ai/ha,90
same,Morningglory plant response rating,morningglory; 250 g ai/ha,98
same,"Plant response rating, Morningglory",morningglory; [7],10
same,"Nutsedge, Yellow plant response rating",yellow nutsedge [4]; 62 g ai/ha,25
same,"Nutsedge, Yellow plant response rating",yellow nutsedge [4]; 125 g ai/ha,65
same,"Nutsedge, Yellow plant response rating",yellow nutsedge [4]; 250 g ai/ha,65
same,"Plant response rating, Nutsedge, Yellow",yellow nutsedge [4]; [7],15
same,Blackgrass plant response rating,blackgrass [5]; 62 g ai/ha,90
same,Blackgrass plant response rating,blackgrass [5]; 125 g ai/ha,90
same,Blackgrass plant response rating,blackgrass [5]; 250 g ai/ha,90
same,"Plant response rating, Blackgrass",blackgrass [5]; [7],85
same,"Crabgrass, Large plant response rating",large (Lg) crabgrass; [8],100
same,"Crabgrass, Large plant response rating",large (Lg) crabgrass; [9],100
same,"Plant response rating (0 to 100), Foxtail, Giant",giant foxtail; 125 g ai/ha,15
same,"Plant response rating (0 to 100), Foxtail, Giant",giant foxtail; 250 g ai/ha,85
same,"Plant response rating, Foxtail, Giant","giant foxtail; 31 g ai/ha, 13 to 15 days",5
same,"Plant response rating, Foxtail, Giant",giant foxtail; 62 g ai/ha,10
same,Pigweed plant response rating,pigweed [6]; [8],100
same,Pigweed plant response rating,pigweed [6]; [9],100
